Paper PMC3128364 (Journal of Clinical Biochemistry and Nutrition, 2011)

Biological target: T1, intestinal maltase
T1 construct: gene Mgam; native, crude extract of rat intestinal acetone powder (Sigma)
Experiment: glucose release from maltose, glucose oxidase kit
Type: biochemical, Rattus norvegicus
Settings: 37 mM maltose (70 µL), 0.1 M phosphate pH 6.9, 37 °C, 30 min

IC50 [µM] | Structure (SMILES)
2.7 ± 0.1 | C[C@H]1O[C@H](O[C@H]2[C@H](O)[C@@H](O)[C@@H](O[C@H]3[C@H](O)[C@@H](O)C(O)O[C@@H]3CO)O[C@@H]2CO)[C@H](O)[C@@H](O)[C@@H]1N[C@H]1C=C(CO)[C@@H](O)[C@H](O)[C@H]1O (some centres unmarked) [Acarbose]
2320 | C[C@@H]1O[C@@H](OC[C@H]2O[C@@H](Oc3cc4c(O)cc(O)cc4[o+]c3-c3ccc(O)c(O)c3)[C@H](O)[C@@H](O)[C@@H]2O)[C@H](O)[C@H](O)[C@H]1O [C3R, cyanidin-3-rutinoside]
